Laboratory results as given in patent US11505523B2, “HDAC8 inhibitors for treating cancer” (City of Hope, priority 2013, dated 2022).

Assays:
[1] = tested on: p53 target genes in 32D-CM cells; assay: qRT-PCR of p53 target genes in 32D-CM cells; format: cell-based; conditions: 10 μM, 16 h
[2] = tested on: MV4-11 cells; assay: Proliferation of MV4-11 cells, luminescent cell viability assay; format: cell-based, human; conditions: 48-hr, luminescent cell viability assay; read-out: MV4-11 Proliferation IC50
[3] = tested on: inv(16)^+ AML CD34^+ cells; assay: Apoptosis of inv(16)+ AML CD34+ cells, Annexin V staining; format: cell-based, human
Excerpt: Given that the frequency of TP53 mutation is relatively low in AML, altered post-translational modification by HDAC8 could represent an alternative p53-inactivating mechanism and contribute to drug resistance of AML stem cells. We first examined the expression of HDAC8 in CD34^+ stem and progenitor cells isolated from patients with inv(16)^+ AML compared to normal mobilized peripheral blood stem cells (PBSC).

[4] = target: HDAC6 (Homo sapiens (Human), UniProt Q9UBN7); assay: Inhibition of purified HDAC6; conditions: read-out: HDAC 6 IC50; class II
[5] = tested on: Ac-p53 (K379) in 32D-CM cells; assay: Western blot of Ac-p53 in CBFβ-SMMHC (CM)-expressing 32D cells; format: cell-based
Excerpt: Cells were lysed in RIPA buffer containing protease inhibitor cocktail (Roche) and MG132. Antibodies used for IP were conjugated with protein A/G beads using the antibody cross-linking kit (Pierce Biotechnology, Rockford, Ill.) following manufacturer's protocol. For Western blot, proteins were resolved in 10% SDS-PAGE. The antibodies used induced anti-FLAG (Sigma), anti-HDAC8, anti-CBFβ (Santa Cruz), anti-p53 (DO-1), anti-Ac-p53 (K379) (Cell Signaling), anti-p53 (Cell signaling) and anti-β-actin (Sigma). Horseradish peroxidase-conjugated anti-rabbit or anti-mouse secondary antibodies (Jackson ImmunoResearch, West Grove Pa.) were used, followed by detection using the SuperFemto kit (Pierce Biotechnology, Rockford, Ill.).
Class 1 HDACs, including HDAC1, HDAC2, and HDAC3, reportedly could inhibit p53 activity by deacetylating p53 [41-43]. […] To test this, we used lentivirus (pLKO. 1) mediated expression of 2 independent small-hairpin (sh)-RNA sequences against Hdac8 to specifically knock-down Hdac8 in 32D-CM cells. Cells were exposed to IR (3Gy) and analyzed for levels of p53 acetylation 6 h after.

[6] = tested on: CL1-5 cells; assay: Cytotoxicity / anti-proliferative activity in CL1-5 lung cancer cells
[7] = target: HDAC4 (Homo sapiens (Human), UniProt P56524); assay: Inhibition of purified HDAC4; conditions: read-out: HDAC 4 IC50; class II
[8] = tested on: MOLM13 cells; assay: Proliferation of MOLM13 cells, luminescent cell viability assay; format: cell-based, human; conditions: 48-hr, luminescent cell viability assay; read-out: MOLM13 Proliferation IC50
[9] = target: HDAC3 (Homo sapiens (Human), UniProt O15379); assay: Inhibition of purified HDAC3; conditions: read-out: HDAC 3 IC50; class I
[10] = tested on: OCI-AML3 cells; assay: Survival/apoptosis of OCI-AML3 AML cells by Annexin V labeling; format: cell-based, human
[11] = tested on: HeLa nuclear HDACs; assay: Inhibition of HeLa nuclear HDACs (HeLa nuclear extract, mainly HDACs1-3); format: biochemical; conditions: read-out: HeLa HDAC IC50
[12] = target: HDAC1 (Homo sapiens (Human), UniProt Q13547); assay: Inhibition of purified HDAC1; format: biochemical; conditions: class I; read-out: HDAC 1 IC50
[13] = target: HDAC11 (Homo sapiens (Human), UniProt Q96DB2); assay: Inhibition of purified HDAC11; conditions: read-out: HDAC 11 IC50; class IV
[14] = tested on: p53 target genes in inv(16)^+ AML CD34^+ cells; assay: qRT-PCR of p53 target genes in inv(16)+ AML CD34+ cells; format: cell-based, human; conditions: 10 μM, 16 h
Excerpt: FIGS. 5A-5G. […] FIG. 5A: Relative expression level of HDAC8 in normal (NL) PBSC (n=7) or inv(16)^+ AML (n=7) CD34^+ cells determined by qRT-PCR. Levels of HDAC8 expression were normalized to levels of ACTB in each sample. Dashed line indicates the average of all NL PBSC samples (set to an arbitrary value of 1). […] Each dot represents an individual subject and lines indicate mean±SEM. * P<0.05; ** P<0.01; *** P<0.001. […] Each dot represents an individual patient and lines indicate mean±SEM. * P<0.05; ** P<0.01; *** P<0.001. […] Levels of β-actin were detected as loading control. Shown are representative results from four patients. […] Each dot represents an individual subject and lines indicate mean±SEM. Dash line indicates levels in vehicle treated cells. * P<0.05; ** P<0.01; *** P<0.001. […] Each dot represents an individual patient and lines indicate mean±SEM.

[15] = target: HDAC2 (Homo sapiens (Human), UniProt Q92769); assay: Inhibition of purified HDAC2; conditions: read-out: HDAC 2 IC50; class I
[16] = tested on: inv(16)^+ AML CD34^+ cells; assay: Proliferation of inv(16)+ AML CD34+ cells, ATP-based cell viability assay; parameters: species or system human; conditions: 48 h, 2.5 μM to 40 μM, compared to normal CD34+ cells
[17] = tested on: A549 cells; assay: Cytotoxicity / anti-proliferative activity in A549 lung cancer cells; conditions: result in words
[18] = tested on: normal IMR-90 cells; assay: Cytotoxicity in normal IMR-90 cells; conditions: result in words
[19] = tested on: Ac-p53 (K382) in inv(16)^+ AML CD34^+ cells; assay: Western blot of Ac-p53 (K382) in inv(16)+ AML CD34+ cells; conditions: 6 h
Excerpt: We therefore tested whether inhibiting HDAC8 deacetylase activity in inv(16)^+ AML CD34^+ cells could similarly lead to increased p53 acetylation and transcriptional activity.

[20] = tested on: H1299 cells; assay: Cytotoxicity / anti-proliferative activity in H1299 lung cancer cells

Sequence of HDAC2 (Q92769 whole entry, species assumed): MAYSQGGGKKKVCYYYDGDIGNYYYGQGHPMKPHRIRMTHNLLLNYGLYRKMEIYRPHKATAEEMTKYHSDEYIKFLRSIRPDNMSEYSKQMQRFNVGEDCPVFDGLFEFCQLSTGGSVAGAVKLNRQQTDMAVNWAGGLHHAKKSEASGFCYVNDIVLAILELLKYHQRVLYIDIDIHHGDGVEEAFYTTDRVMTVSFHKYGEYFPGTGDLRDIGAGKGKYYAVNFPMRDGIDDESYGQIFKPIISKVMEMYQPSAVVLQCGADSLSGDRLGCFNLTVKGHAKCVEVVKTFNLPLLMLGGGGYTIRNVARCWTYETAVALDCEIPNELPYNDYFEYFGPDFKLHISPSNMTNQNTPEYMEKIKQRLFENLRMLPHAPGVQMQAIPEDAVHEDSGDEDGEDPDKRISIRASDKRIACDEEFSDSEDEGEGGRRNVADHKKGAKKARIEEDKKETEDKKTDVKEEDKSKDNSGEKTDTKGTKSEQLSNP
Sequence of HDAC4 (P56524 whole entry, species assumed): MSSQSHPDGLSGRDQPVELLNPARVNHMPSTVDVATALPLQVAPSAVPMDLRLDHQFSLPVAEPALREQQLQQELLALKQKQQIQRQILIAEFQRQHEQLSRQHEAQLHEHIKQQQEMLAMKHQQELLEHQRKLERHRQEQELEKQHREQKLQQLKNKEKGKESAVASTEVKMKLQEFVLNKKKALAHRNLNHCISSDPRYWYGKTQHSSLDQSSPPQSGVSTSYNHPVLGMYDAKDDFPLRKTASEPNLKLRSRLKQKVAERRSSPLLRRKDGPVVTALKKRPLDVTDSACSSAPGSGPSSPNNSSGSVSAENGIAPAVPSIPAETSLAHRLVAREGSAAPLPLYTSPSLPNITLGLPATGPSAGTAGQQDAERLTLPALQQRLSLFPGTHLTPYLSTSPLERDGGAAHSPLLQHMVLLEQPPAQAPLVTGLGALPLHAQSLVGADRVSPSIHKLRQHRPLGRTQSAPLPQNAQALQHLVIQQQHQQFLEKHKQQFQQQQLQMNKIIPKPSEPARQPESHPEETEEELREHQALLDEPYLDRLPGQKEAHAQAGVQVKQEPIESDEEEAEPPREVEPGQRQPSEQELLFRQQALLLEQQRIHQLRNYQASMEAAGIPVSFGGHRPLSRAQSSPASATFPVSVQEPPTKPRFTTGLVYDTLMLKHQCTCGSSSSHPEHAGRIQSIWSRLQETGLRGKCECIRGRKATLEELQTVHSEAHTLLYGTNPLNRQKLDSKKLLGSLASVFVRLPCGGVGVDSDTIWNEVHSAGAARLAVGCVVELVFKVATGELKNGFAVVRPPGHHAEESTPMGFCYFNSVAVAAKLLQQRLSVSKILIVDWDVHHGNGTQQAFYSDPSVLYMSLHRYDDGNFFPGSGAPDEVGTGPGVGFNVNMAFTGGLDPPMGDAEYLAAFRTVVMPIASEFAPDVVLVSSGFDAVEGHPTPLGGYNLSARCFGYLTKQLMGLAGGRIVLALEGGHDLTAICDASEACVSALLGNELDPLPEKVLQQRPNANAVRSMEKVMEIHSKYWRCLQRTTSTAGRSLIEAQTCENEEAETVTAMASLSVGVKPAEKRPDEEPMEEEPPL
Sequence of HDAC3 (O15379 whole entry, looked up, species assumed): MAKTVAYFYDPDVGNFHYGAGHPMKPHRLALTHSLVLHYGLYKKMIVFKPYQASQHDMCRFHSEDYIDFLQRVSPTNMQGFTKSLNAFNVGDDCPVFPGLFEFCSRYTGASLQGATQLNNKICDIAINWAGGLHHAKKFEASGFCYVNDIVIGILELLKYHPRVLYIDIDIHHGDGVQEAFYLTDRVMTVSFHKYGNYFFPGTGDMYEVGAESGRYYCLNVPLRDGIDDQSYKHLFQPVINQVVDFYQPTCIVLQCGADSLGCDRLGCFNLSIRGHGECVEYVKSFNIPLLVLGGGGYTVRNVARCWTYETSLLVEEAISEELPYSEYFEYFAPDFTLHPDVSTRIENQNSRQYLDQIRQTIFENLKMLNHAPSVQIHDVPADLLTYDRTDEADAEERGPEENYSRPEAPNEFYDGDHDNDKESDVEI
Sequence of HDAC3 (Q9Y618 whole entry partner, looked up, species assumed): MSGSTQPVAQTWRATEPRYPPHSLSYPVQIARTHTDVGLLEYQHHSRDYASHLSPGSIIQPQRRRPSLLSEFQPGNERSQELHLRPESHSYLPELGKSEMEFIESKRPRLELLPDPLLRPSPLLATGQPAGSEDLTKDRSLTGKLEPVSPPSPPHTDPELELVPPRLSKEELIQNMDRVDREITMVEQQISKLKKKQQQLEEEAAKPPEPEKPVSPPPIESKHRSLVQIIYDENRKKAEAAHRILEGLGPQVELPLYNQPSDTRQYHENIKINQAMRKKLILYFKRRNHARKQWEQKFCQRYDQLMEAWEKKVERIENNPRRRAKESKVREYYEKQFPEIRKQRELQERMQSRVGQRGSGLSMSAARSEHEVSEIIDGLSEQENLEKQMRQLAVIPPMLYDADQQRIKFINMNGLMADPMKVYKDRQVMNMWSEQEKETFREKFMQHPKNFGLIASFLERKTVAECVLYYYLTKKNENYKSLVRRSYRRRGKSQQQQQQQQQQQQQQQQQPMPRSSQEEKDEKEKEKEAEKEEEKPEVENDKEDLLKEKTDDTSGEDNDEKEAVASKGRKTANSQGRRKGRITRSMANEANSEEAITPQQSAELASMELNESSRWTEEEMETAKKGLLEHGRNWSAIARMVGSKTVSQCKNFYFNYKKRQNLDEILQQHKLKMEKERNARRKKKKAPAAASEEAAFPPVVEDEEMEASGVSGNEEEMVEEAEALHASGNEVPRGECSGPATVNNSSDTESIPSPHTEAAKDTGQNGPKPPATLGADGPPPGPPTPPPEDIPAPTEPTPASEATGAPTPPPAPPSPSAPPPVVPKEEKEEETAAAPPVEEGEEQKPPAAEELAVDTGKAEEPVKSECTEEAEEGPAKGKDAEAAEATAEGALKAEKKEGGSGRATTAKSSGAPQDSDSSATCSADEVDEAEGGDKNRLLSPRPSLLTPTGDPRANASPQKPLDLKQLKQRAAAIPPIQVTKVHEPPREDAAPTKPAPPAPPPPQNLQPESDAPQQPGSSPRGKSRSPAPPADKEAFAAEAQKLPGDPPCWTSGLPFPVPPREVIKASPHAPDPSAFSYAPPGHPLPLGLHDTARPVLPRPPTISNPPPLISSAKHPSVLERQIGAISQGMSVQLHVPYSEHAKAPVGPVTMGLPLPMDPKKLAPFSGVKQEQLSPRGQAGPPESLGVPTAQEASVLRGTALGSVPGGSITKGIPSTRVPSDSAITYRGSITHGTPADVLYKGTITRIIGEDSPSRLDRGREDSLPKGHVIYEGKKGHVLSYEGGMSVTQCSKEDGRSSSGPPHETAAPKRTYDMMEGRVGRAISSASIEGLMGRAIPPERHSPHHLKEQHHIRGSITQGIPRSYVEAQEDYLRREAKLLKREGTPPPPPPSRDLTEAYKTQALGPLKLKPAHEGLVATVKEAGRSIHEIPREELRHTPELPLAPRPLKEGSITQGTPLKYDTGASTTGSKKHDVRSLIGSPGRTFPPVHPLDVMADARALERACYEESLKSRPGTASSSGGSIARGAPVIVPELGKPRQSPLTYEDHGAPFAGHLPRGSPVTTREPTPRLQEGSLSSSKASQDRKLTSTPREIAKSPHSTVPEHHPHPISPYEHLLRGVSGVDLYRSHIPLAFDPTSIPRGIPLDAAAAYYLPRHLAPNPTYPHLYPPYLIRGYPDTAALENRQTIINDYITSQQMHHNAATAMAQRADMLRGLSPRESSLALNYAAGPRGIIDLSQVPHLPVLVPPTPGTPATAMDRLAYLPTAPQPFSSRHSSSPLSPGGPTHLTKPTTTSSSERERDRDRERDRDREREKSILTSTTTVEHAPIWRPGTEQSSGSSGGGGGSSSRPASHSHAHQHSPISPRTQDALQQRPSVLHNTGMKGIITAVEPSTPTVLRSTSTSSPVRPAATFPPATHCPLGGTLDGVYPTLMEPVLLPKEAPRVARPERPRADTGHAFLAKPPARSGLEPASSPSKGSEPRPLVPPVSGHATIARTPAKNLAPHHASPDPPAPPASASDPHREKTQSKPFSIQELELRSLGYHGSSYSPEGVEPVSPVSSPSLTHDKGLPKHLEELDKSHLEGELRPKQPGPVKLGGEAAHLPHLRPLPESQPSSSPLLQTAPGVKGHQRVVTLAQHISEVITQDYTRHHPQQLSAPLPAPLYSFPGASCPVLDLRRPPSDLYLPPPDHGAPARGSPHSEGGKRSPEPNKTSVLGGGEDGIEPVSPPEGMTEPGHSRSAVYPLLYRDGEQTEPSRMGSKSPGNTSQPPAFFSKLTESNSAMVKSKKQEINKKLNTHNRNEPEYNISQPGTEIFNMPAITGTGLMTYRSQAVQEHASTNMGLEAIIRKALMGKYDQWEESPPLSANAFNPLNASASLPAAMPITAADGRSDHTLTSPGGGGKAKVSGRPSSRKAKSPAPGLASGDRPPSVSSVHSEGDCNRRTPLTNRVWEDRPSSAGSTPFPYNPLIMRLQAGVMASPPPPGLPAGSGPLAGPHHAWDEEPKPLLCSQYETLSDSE
Sequence of HDAC11 (Q96DB2 whole entry, species assumed): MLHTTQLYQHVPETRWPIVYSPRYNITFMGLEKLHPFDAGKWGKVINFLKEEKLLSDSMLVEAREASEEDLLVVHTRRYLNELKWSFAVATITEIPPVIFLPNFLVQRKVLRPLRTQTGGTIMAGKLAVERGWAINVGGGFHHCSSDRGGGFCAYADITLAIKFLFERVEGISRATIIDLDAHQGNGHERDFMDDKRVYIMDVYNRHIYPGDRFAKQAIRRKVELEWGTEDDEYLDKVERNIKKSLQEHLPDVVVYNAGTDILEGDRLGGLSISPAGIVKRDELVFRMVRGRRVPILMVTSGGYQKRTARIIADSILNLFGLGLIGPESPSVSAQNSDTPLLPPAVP

COc1ccc(/C=C/C(=O)NO)c(-c2ccc(-c3ccccc3)cc2)c1 [Compound 22d, (E)-N-Hydroxy-4-methoxy-2-(biphenyl-4-yl)cinnamide]
activation of p53 targets (Bax, Puma, p21, Gadd45b and LincRNA-p21) [1]: Variable levels of activation
IC50 [2]: 2480 nM
apoptosis of inv(16)+ AML CD34+ cells ([3]; 48 h, compared to normal CD34+ cells or non-inv(16) AML): selectively induced apoptosis
22d-induced apoptosis after p53 knock-down ([3]; p53 shRNA vs non-silencing shRNA control, 2.5-40 μM): reduction of 22d-induced apoptosis
IC50 [4]: > 20 nM
Ac-p53 level in CM-expressing cells ([5]; Western blot, 6 h): remarkably increased Ac-p53
Ac-p53 level, in combination with Nutlin-3 ([5]; compared to Nutlin-3 alone): enhanced Ac-p53 compared to Nutlin-3 alone
enhancement of p53 acetylation compared to other HDAC inhibitors ([5]; vs MS-275, TV6, PCI-24781): differential activity in enhancing p53 acetylation
IC50 ([6]; read-out: Cytotoxicity IC50 Cl1-5, mean SD of three determinations): 7 ± 1.5 nM
activity in CL1-5 cells ([6]; result in words): activity similar to that of SAHA
IC50 [7]: > 20 nM
IC50 [8]: 2420 nM
IC50 [9]: 3 ± 0.1 nM
IC50 ([10]; 48-hr, Annexin V labeling, read-out: OCI-AML3 Apoptosis IC50): 8120 nM
survival of OCI-AML3 cells ([10]; 48 h, result in words): decreases with increased HDAC8i concentration
IC50 [11]: > 10000 nM
IC50 [12]: 3 ± 0.2 nM
IC50 [13]: > 20 nM
expression of p53 target genes in inv(16)+ AML CD34+ cells [14]: significantly induced expression of p53 target genes
IC50 [15]: > 20 nM
proliferation of inv(16)+ CD34+ cells [16]: significantly reduced proliferation
anti-proliferative effects in A549 cells [17]: moderate anti-proliferative effects
cytotoxicity in normal IMR-90 cells [18]: no significant cytotoxicity
Ac-p53 (K382) level in inv(16)+ AML CD34+ cells [19]: elevated levels of Ac-p53 (K382)
IC50 ([20]; read-out: Cytotoxicity IC50 H1299, mean SD of three determinations): 7.2 ± 0.7 nM
anti-proliferative effects in H1299 cells ([20]; result in words): moderate anti-proliferative effects
